Measured values as given in ChEMBL document CHEMBL1201862, “PubChem BioAssay data set” (2004).
The source made the active and inactive calls.

Tests used:
Assay type in all cases: functional
[1] = target: Mitogen-activated protein kinase 9 (Homo sapiens, UniProt P45984);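 further: value from a kinome panel profiling assay, MAPK9 panel entry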
[2] = target: Casein kinase I isoform delta (Homo sapiens, UniProt P48730);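 further: measured as one member (CSNK1D) of a kinome panel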
Ephrin type-A receptor 2 = Ephrin type-A receptor 2 (Homo sapiens, UniProt P29317);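 further: EPHA2 tested as one member of a kinome-wide kinase panel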
[3] = target: Receptor tyrosine-protein kinase erbB-2 (Homo sapiens, UniProt P04626); assay: Navigating the Kinome. Panel member name: ERBB2
Sequence of Receptor tyrosine-protein kinase erbB-2 (P04626 whole entry): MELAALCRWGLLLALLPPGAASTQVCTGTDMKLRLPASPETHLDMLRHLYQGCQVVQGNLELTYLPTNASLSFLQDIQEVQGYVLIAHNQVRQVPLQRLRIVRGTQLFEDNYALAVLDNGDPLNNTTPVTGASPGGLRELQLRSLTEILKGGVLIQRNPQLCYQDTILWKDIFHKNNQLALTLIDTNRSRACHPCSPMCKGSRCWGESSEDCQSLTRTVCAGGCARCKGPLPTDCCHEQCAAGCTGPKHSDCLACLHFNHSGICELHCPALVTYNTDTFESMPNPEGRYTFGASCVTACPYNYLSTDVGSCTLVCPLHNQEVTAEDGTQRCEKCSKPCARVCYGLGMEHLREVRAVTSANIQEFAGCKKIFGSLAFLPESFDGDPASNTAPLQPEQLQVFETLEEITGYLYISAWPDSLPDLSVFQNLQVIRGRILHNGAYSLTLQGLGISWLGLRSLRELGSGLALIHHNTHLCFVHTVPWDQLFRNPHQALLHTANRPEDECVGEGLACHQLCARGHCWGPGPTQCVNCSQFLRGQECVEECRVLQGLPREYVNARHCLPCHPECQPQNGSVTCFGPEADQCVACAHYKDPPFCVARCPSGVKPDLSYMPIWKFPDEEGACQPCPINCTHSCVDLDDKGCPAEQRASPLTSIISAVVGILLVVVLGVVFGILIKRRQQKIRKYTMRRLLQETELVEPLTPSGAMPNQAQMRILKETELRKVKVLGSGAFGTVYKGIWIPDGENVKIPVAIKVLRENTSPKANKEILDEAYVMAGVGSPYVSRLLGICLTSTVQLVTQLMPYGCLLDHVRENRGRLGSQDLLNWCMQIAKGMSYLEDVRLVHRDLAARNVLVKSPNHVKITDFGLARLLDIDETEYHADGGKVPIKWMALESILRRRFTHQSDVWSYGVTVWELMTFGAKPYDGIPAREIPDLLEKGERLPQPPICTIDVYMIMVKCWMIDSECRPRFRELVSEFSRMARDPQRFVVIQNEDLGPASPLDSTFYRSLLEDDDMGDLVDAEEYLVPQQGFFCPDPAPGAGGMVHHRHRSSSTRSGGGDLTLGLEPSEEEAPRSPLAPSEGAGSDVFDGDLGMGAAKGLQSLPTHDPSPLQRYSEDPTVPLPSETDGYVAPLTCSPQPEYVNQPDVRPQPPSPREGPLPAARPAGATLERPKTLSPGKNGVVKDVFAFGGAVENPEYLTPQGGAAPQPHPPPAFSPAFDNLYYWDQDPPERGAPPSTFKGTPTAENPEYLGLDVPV

[4] = target: Macrophage colony-stimulating factor 1 receptor (Homo sapiens, UniProt P07333);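 further: value comes from the Navigating the Kinome screening panel, CSF1R member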
[5] = target: Cyclin-dependent kinase 2 (Homo sapiens, UniProt P24941);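 further: CDK2 measured as one member of a broad kinome profiling panel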
[6] = target: Mitogen-activated protein kinase 12 (Homo sapiens, UniProt P53778);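 further: measured as one member of a kinome-wide kinase profiling panel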
Sequence of Mitogen-activated protein kinase 12 (P53778 whole entry): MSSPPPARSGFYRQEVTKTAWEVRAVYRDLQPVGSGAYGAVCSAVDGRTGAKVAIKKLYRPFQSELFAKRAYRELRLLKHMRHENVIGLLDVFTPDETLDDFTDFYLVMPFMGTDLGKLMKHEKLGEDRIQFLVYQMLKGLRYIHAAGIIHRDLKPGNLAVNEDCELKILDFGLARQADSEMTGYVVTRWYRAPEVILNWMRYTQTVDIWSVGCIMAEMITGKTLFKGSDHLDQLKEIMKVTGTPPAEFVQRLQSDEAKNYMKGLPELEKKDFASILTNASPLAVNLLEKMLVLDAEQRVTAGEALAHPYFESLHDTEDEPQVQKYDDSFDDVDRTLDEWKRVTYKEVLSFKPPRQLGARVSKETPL

[7] = target: Serine/threonine-protein kinase D2 (Homo sapiens, UniProt Q9BZL6);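 further: measured against PRKD2 as one member of a kinome-wide kinase profiling panel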
Sequence of Serine/threonine-protein kinase D2 (Q9BZL6 whole entry): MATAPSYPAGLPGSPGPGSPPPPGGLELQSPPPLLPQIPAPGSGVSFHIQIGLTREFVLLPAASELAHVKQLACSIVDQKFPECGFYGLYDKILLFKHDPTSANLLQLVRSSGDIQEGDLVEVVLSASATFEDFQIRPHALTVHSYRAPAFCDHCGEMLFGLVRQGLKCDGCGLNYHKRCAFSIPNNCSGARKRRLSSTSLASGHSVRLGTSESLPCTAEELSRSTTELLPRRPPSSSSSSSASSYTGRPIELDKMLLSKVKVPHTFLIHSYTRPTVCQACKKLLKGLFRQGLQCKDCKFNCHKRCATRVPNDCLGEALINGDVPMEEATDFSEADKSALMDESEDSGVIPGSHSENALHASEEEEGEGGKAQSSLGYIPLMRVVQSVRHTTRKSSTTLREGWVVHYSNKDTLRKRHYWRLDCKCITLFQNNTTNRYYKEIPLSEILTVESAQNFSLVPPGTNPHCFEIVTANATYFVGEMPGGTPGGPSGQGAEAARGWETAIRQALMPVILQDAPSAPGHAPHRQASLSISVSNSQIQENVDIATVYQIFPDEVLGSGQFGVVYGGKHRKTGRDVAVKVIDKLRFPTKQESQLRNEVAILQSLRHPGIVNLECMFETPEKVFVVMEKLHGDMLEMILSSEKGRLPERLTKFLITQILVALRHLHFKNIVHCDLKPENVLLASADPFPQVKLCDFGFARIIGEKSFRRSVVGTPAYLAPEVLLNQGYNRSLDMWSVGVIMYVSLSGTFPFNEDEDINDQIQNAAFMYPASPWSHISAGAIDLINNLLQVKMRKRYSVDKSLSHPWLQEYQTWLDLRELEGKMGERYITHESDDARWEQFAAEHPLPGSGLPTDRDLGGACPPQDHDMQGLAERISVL

Insulin receptor = Insulin receptor (Homo sapiens, UniProt P06213);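 further: insulin receptor kinase tested as one member of a kinome-wide kinase panel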
[8] = target: MAP kinase-activated protein kinase 3 (Homo sapiens, UniProt Q16644);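 further: value comes from a kinome-wide profiling panel in which MAPKAPK3 is one of the panel members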
Sequence of MAP kinase-activated protein kinase 3 (Q16644 whole entry): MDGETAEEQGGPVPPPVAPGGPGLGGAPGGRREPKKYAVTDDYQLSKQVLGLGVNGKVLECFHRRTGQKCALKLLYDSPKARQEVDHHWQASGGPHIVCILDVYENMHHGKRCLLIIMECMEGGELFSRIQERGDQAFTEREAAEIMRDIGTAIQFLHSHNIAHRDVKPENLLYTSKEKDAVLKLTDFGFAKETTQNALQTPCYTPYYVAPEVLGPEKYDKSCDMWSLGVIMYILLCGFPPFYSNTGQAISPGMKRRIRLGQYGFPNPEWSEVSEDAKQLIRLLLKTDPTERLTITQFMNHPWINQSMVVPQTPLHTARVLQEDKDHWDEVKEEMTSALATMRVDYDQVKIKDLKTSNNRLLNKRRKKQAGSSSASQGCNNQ

[9] = target: Vascular endothelial growth factor receptor 2 (Homo sapiens, UniProt P35968)
[10] = target: Rho-associated protein kinase 1 (Homo sapiens, UniProt Q13464);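 further: measured within a broad kinome-wide panel profiling many kinases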
Sequence of Rho-associated protein kinase 1 (Q13464 whole entry): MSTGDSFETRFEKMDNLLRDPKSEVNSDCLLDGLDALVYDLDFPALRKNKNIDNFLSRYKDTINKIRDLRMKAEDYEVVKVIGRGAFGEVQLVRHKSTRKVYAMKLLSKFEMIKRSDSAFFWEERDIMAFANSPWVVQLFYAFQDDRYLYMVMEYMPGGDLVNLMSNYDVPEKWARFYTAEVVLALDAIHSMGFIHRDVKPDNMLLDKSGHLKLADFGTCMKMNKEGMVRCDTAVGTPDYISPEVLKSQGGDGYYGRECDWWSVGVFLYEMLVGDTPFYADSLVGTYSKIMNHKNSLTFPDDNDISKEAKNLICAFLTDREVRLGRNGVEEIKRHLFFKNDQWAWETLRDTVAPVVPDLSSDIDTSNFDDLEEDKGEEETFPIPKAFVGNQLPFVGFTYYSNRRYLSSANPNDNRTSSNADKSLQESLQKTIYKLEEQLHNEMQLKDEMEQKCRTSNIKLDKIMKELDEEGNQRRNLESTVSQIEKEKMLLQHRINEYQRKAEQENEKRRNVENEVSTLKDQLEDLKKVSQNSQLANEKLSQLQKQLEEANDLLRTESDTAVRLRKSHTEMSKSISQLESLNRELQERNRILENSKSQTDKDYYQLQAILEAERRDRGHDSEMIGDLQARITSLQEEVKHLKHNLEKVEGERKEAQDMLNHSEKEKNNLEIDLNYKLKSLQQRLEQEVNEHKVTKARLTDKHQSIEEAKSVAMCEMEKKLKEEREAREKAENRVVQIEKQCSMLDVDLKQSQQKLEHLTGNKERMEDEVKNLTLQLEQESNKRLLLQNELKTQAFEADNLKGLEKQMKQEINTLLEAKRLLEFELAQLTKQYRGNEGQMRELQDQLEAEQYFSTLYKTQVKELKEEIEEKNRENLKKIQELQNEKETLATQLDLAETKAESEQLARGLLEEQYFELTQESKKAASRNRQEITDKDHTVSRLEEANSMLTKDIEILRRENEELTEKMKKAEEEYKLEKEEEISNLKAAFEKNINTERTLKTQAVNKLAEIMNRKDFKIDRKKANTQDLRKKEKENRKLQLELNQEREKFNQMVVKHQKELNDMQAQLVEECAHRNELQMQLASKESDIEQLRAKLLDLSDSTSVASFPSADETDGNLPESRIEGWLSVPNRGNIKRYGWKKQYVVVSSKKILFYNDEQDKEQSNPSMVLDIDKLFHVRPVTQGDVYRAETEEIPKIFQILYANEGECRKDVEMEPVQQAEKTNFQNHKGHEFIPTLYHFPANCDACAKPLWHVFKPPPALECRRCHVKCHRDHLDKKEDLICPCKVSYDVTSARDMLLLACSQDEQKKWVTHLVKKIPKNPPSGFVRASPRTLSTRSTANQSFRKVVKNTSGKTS

[11] = target: Mast/stem cell growth factor receptor Kit (Homo sapiens, UniProt P10721);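 further: KIT entry within a kinase panel assay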
[12] = target: MAP kinase-activated protein kinase 2 (Homo sapiens, UniProt P49137);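 further: measured as one member of a kinome-wide kinase panel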
[13] = target: Insulin-like growth factor 1 receptor (Homo sapiens, UniProt P08069); assay: Navigating the Kinome. Panel member name: IGF1R
[14] = target: Serine/threonine-protein kinase Chk1 (Homo sapiens, UniProt O14757);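 further: measured as one member of a kinome-wide kinase profiling panel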
[15] = target: Calcium/calmodulin-dependent protein kinase type 1 (Homo sapiens, UniProt Q14012)
[16] = target: Ribosomal protein S6 kinase beta-1 (Homo sapiens, UniProt P23443);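 further: measured as one member of a kinome-wide profiling panel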
Aurora kinase B = Aurora kinase B (Homo sapiens, UniProt Q96GD4)
Sequence of Aurora kinase B (Q96GD4 whole entry): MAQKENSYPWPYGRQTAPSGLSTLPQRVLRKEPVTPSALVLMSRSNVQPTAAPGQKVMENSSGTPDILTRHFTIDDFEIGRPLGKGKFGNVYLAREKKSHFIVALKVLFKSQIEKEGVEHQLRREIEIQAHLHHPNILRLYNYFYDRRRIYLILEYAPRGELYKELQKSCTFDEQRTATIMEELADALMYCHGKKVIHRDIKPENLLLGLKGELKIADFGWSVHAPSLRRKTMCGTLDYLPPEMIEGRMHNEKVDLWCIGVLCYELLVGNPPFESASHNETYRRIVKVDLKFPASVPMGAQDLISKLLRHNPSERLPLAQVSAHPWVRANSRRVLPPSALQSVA

[17] = target: Fibroblast growth factor receptor 3 (Homo sapiens, UniProt P22607)
[18] = target: 5'-AMP-activated protein kinase catalytic subunit alpha-1 (Homo sapiens, UniProt Q13131)
[19] = target: 3-phosphoinositide-dependent protein kinase 1 (Homo sapiens, UniProt O15530);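 further: value comes from the Navigating the Kinome panel, PDPK1 member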
[20] = target: Casein kinase II subunit alpha (Homo sapiens, UniProt P68400)
[21] = target: Serine/threonine-protein kinase 3 (Homo sapiens, UniProt Q13188);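 further: measured as one member of a kinome-wide kinase panel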
Sequence of Serine/threonine-protein kinase 3 (Q13188 whole entry): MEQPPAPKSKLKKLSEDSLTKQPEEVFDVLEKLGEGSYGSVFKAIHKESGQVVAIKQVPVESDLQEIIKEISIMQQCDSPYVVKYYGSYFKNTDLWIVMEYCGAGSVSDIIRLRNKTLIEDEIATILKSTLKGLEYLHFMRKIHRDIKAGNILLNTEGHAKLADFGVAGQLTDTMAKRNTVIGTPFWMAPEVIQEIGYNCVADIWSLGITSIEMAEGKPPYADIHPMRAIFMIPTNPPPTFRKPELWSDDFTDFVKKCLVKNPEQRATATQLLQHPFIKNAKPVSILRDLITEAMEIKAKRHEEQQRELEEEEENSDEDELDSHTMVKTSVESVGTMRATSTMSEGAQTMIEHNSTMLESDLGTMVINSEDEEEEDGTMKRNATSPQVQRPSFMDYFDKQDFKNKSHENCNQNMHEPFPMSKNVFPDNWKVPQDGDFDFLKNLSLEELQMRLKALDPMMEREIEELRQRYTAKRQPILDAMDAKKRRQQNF

[22] = target: Cyclin-dependent kinase 1 (Homo sapiens, UniProt P06493);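 further: Kinome-wide panel profiling, with the target listed as panel member CDC2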
[23] = target: Vascular endothelial growth factor receptor 3 (Homo sapiens, UniProt P35916);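 further: value from a kinome-wide profiling panel, with FLT4 as the panel member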
[24] = target: Tyrosine-protein kinase Fyn (Homo sapiens, UniProt P06241)
[25] = target: Receptor tyrosine-protein kinase erbB-4 (Homo sapiens, UniProt Q15303);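 further: ERBB4 member of a kinome-wide kinase profiling panel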
[26] = target: Tyrosine-protein kinase Lyn (Homo sapiens, UniProt P07948);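 further: lyn as one member of a kinase panel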
[27] = target: Cyclin-dependent kinase 5 (Homo sapiens, UniProt Q00535);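 further: CDK5 measured as one member of a kinase profiling panel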
[28] = target: T1, Tyrosine-protein kinase JAK3 (Homo sapiens, UniProt P52333)
T1 sequence (P52333 whole entry): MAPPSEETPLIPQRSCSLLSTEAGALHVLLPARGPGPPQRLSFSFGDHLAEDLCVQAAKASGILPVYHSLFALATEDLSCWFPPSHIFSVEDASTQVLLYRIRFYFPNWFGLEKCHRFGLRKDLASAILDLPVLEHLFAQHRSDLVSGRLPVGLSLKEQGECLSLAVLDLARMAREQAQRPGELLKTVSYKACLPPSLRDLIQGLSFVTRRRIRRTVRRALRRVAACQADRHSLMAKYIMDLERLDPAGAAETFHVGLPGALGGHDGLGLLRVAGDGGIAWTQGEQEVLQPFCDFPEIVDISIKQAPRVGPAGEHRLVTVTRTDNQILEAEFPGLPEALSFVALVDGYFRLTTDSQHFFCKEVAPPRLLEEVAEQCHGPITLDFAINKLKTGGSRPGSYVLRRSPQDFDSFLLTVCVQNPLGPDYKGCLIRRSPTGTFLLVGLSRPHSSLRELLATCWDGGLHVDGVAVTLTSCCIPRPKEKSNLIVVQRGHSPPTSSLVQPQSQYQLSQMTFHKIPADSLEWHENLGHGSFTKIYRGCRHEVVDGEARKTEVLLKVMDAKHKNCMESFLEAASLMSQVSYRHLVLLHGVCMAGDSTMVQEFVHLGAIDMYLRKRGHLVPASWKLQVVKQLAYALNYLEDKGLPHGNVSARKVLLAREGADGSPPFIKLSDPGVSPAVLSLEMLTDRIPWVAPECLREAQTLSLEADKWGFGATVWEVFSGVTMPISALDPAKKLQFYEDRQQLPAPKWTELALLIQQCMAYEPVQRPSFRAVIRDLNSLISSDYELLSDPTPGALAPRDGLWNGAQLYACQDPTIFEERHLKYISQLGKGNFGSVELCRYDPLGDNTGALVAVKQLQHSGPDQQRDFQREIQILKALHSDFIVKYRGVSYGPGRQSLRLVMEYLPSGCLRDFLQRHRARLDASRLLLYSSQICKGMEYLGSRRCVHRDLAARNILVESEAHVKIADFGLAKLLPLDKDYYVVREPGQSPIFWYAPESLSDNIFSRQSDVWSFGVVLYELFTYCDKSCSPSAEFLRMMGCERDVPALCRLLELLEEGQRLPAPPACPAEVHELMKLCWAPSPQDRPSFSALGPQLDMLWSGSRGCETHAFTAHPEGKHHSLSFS

[29] = target: MAP/microtubule affinity-regulating kinase 3 (Homo sapiens, UniProt P27448);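 further: MARK3 affinity measured as one member of a kinome panel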

Row | Ki [1] | Ki [2] | Ki (Ephrin type-A receptor 2) | Ki [3] | Ki [4] | Ki [5] | Ki [6] | Ki [7] | Ki (Insulin receptor) | Ki [8] | Ki [9] | Ki [10] | Ki [11] | Ki [12] | Ki [13] | Ki [14] | Ki [15] | Ki [16] | Ki (Aurora kinase B) | Ki [17] | SMILES | also measured
1 | > 3980 nM (inactive) | 2000 nM (active) | > 3160 nM (inactive) | > 1580 nM (inactive) | > 2510 nM (inactive) | > 7940 nM (inactive) | > 6310 nM (inactive) | > 10000 nM (inactive) | > 5010 nM (inactive) | > 10000 nM (inactive) | > 7940 nM (inactive) | > 10000 nM (inactive) | > 1260 nM (inactive) | > 7940 nM (inactive) | > 1000 nM (inactive) | > 7940 nM (inactive) | > 7940 nM (inactive) | 1260 nM (active) | 6310 nM (active) | > 2000 nM (inactive) | Cc1c(C=O)c(O)n2c(nc3ccccc32)c1C#N | Ki [18]: > 10000 nM (inactive); Ki [19]: > 3980 nM (inactive); Ki [20]: 63.1 nM (active); Ki [21]: 5010 nM (active); Ki [22]: > 7940 nM (inactive); Ki [23]: 794 nM (active); Ki [24]: 398 nM (active); Ki [25]: > 3980 nM (inactive); Ki [26]: 1580 nM (active); Ki [27]: > 10000 nM (inactive); Ki [28]: 100 nM (active); Ki [29]: > 6310 nM (inactive)
2 | > 3980 nM (inactive) | 316 nM (active) | > 3160 nM (inactive) | > 1580 nM (inactive) | > 2510 nM (inactive) | 10 nM (active) | 1000 nM (active) | 251 nM (active) | > 5010 nM (inactive) | > 10000 nM (inactive) | > 7940 nM (inactive) | 7.94 nM (active) | > 1260 nM (inactive) | 1580 nM (active) | > 2000 nM (inactive) | 3980 nM (active) | 501 nM (active) | 12.6 nM (active) | 3160 nM (active) | > 2000 nM (inactive) | Cc1n[nH]c2cnc(-c3cncc(OCC(N)Cc4cccc(C(F)(F)F)c4)c3)cc12 (centres undefined) | Ki [18]: 12.6 nM (active); Ki [19]: 200 nM (active); Ki [20]: 794 nM (active); Ki [21]: 79.4 nM (active); Ki [22]: 31.6 nM (active); Ki [23]: 3160 nM (active); Ki [24]: > 794 nM (inactive); Ki [25]: > 3980 nM (inactive); Ki [26]: > 1580 nM (inactive); Ki [27]: 63.1 nM (active); Ki [28]: 1260 nM (active); Ki [29]: 63.1 nM (active)
